In US8747882B2, “Catheter assembly with bactericidal effect” (Astra Tech AB, priority 2005, dated 2014):

Tested on: Escherichia coli
Assay: MIC (Minimum Inhibitory Concentration) test, bacterial growth inhibition in synthetic urine (Bioscreen optical density)
Type: cell-based
Settings: mixed 1+3 with synthetic urine
Protocol: Experimental tests were conducted in order to verify the above-discussed results. In the experiments, solutions were prepared and sterilized by radiation (E-beam) or heat (autoclave). […] Further, some of the solutions were buffered to a predetermined pH-value with a citrate buffer (a buffer-system consisting of sodium citrates). All solutions were mixed with three volumetric parts synthetic urine in the experiments. Synthetic urine supports bacterial growth and were used as growth medium as well as negative control reference in the experiments. All experiments were made on the bacteria Escherichia coli, since the E. coli bacteria is normally the most relevant bacteria to inhibit for urinary catheter products. MIC (Minimum Inhibitory Concentration) tests were performed to assess the potential of a given substance and concentration to inhibit bacterial growth. The solutions were added to a growth solution containing a specified number of bacteria. The bacteria were then grown in microtiter-wells at 37 deg. C. in a Bioscreen-instrument for a period of at least 40 hours. The bacterial growth/inhibition was monitored in terms of optical density for the solution. Since all microorganisms increase the optical density of a solution during growth and multiplication, the Bioscreen measure of the transmittance/absorbance of light through the sample is correlated to the concentration of microorganisms. The results of the measurements of the different solutions are compared to a negative control reference, i.e. to synthetic urine, for each set of experiments.

[1] = 0.1% w/w, 850 mOsm, pH 6.5, no buffer
[2] = 0.3% w/w, 850 mOsm, pH 6.5, no buffer
[3] = 1.0% w/w, 850 mOsm, pH 6.5, no buffer

SMILES | Result (index): inhibition time relative to synthetic urine (0.05% w/w, 860 mOsm, pH 5.6, citrate buffer) [index] | Result (index): inhibition time relative to synthetic urine (0.05% w/w, 860 mOsm, pH 5.9, citrate buffer) [index] | Result (index): inhibition time relative to synthetic urine (0.05% w/w, 860 mOsm, pH 6.5, no buffer) [index] | Result (index): inhibition time relative to synthetic urine (0.05% w/w, 870 mOsm, pH 5.0, citrate buffer) [index] | Result (index): inhibition time relative to synthetic urine [1] [index] | Result (index): inhibition time relative to synthetic urine [2] [index] | Result (index): inhibition time relative to synthetic urine [3] [index] | Result (index): inhibition time relative to synthetic urine (0.25% w/w, 860 mOsm, pH 5.0, citrate buffer) [index] | Result (index): inhibition time relative to synthetic urine (0.25% w/w, 860 mOsm, pH 5.6, citrate buffer) [index] | Result (index): inhibition time relative to synthetic urine (0.25% w/w, 860 mOsm, pH 5.9, citrate buffer) [index] | Result (index): inhibition time relative to synthetic urine (0.25% w/w, 860 mOsm, pH 6.5, no buffer) [index] | Result (index): inhibition time relative to synthetic urine (0.9% w/w, 900 mOsm, pH 6.5, no buffer) [index] | Result (index): inhibition time relative to synthetic urine (3.0% w/w, 1700 mOsm, pH 6.5, no buffer) [index]
C/C=C/C=C/C(=O)[O-].[K+] [KS, Potassium Sorbate] | 1.8 | 1.7 | 1.2 | >8.0 | 3.8 | 5.0 | 5.3 | – | – | – | – | – | –
O=C([O-])c1ccccc1.[Na+] [NaB, Sodium Benzoate] | – | – | – | – | 2.3 | 4.0 | 5.3 | >8.0 | >8.0 | >8.0 | 4.0 | – | –
[Cl-].[Na+] [NaCl, sodium chloride, reference compound] | – | – | – | – | – | – | – | – | – | – | – | 1.0 | 1.5
